Measurements taken from patent US11857565B2, “Hydrophobic Auristatin F compounds and conjugates thereof” (priority 2018, dated 2024).
Starred links: 1 amine or outer side, 2 acyl side, 3 side chain; linkers in the order of their positions; H or OH if unused. Non-standard residues stand in square brackets, D forms with d. Residues, ends and D or L forms follow the SMILES beside them. *: point of attachment. Dolaproine = CO[C@@H]([C@@H]1CCCN1)[C@@H](C)C(=O)O; X2 = CC(C)[C@@H](C(=O)[*:2])N(C)CCCCCN(C)[*:1]; X5 = CC(C)[C@@H](C(=O)[*:2])N(C)CCCN(C)[*:1]; Dil = CC[C@H](C)[C@H](NC)[C@@H](CC(=O)O)OC; X1 = C[C@@H](N*)[C@@H](O)c1ccccc1; NMeV = CN[C@H](C(=O)O)C(C)C; Boc = CC(C)(C)OC(=O)*

B1: h1F6-37(4): 4-load auristatin ADC targeting CD70: h1F6 antibody conjugated to drug linker compound 37 (conjugate, chains of the INN, looked up)
VH: QVQLVQSGAEVKKPGASVKVSCKASGYTFTNYGMNWVRQAPGQGLKWMGWINTYTGEPTYADAFKGRVTMTRDTSISTAYMELSRLRSDDTAVYYCARDYGDYGMDYWGQGTTVTVSS
VL: DIVMTQSPDSLAVSLGERATINCRASKSVSTSGYSFMHWYQQKPGQPPKLLIYLASNLESGVPDRFSGSGSGTDFTLTISSLQAEDVAVYYCQHSREVPWTFGQGTKVEIK
modifications: auristatin drug linker compound 37, 4-load
B2: h1F6-36(4): 4-load auristatin ADC targeting CD70: h1F6 antibody conjugated to drug linker compound 36 (conjugate, chains of the INN, looked up)
VH: B1 VH
VL: B1 VL
modifications: auristatin drug linker compound 36, 4-load
B3: h1F6-35(4): 4-load auristatin ADC targeting CD70: h1F6 antibody conjugated to drug linker compound 35 (conjugate, chains of the INN, looked up)
VH: B1 VH
VL: B1 VL
modifications: auristatin drug linker compound 35, 4-load
B4: h1F6-mc-vc-MMAF(4): comparator 4-load h1F6 ADC having an mc-vc-MMAF drug linker (conjugate, chains of the INN, looked up)
VH: B1 VH
VL: B1 VL
modifications: mc-vc-MMAF, 4-load
notes: comparator 4-load h1F6 ADC having an mc-vc-MMAF drug linker
B5: h1F6-38(4): 4-load auristatin ADC targeting CD70: h1F6 antibody conjugated to drug linker compound 38 (conjugate, chains of the INN, looked up)
VH: B1 VH
VL: B1 VL
modifications: auristatin drug linker compound 38, 4-load
B6: h1F6-mc-vc-MMAE(4): comparator 4-load h1F6 ADC having an mc-vc-MMAE drug linker (conjugate, chains of the INN, looked up)
VH: B1 VH
VL: B1 VL
modifications: mc-vc-MMAE, 4-load
notes: comparator 4-load h1F6 ADC having an mc-vc-MMAE drug linker

How the values were obtained:
Type in all cases: cell-based
A2058 Melanoma = test: In vitro cytotoxicity, free drugs on A2058; conditions: free drug
Experimental: (§1) The cytotoxicity of an auristatin Ligand Drug Conjugate or free auristatin drug was measured by a cell proliferation assay employing the protocol described in Promega Corp. Technical Bulletin TB288; Mendoza et al., 2002, Cancer Res. 62:5485-5488), the methods of which is specifically incorporated by reference herein. Briefly, an aliquot of 100 μl of cell culture containing about […] (e.g., HL-60, SK-MEL-5, etc.) in medium is deposited in each well of a 96-well, opaque-walled plate. Control wells were prepared containing medium and without cells. Free Drug or conjugate is added to the experimental wells and incubated for 96 h and are then equilibrated to room temperature for approximately 30 minutes whereupon a volume of CellTiter-Glo™ reagent equal to the volume of cell culture medium present in each well is added. The contents are mixed for 2 minutes on an orbital shaker to induce cell lysis and the plate is incubated at room temperature for 10 minutes to stabilize the luminescence signal for recordation.

SK-MEL-28 Melanoma = test: In vitro cytotoxicity, free drugs on SK-MEL-28; conditions: free drug
Experimental: as §1

IGR-37 Melanoma = test: In vitro cytotoxicity, free drugs on IGR-37; conditions: free drug
Experimental: as §1

[1] = In vitro cytotoxicity, free drugs on Colo-853; conditions: free drug; read-out: In vitro IC50 Colo-853 Colon Cancer
Experimental: as §1

[2] = tested on: MDR+ HL60/RV acute myeloid leukemia cell line; test: In vitro cytotoxicity (CellTiter-Glo cell proliferation assay), free drugs on HL60/RV; conditions: free drug, 96 h incubation; read-out: In vitro IC50 HL60/RV (MDR+)
Experimental: as §1

[3] = tested on: MDR− HL60 acute myeloid leukemia cell line; test: In vitro cytotoxicity (CellTiter-Glo cell proliferation assay), free drugs on HL60; conditions: free drug, 96 h incubation; read-out: In vitro IC50 HL60 (MDR−)
Experimental: as §1

SK-MEL-5 Melanoma = test: In vitro cytotoxicity, free drugs on SK-MEL-5; conditions: free drug
Experimental: as §1

A375 Melanoma = test: In vitro cytotoxicity, free drugs on A375; conditions: free drug
Experimental: as §1

L428 Hodgkin Lymphoma = test: In vitro cytotoxicity, 4-load auristatin ADCs on L428; conditions: 4-load ADC
Experimental: as §1

[4] = tested on: A498 Renal Cell Carcinoma; test: In vitro cytotoxicity, 4-load auristatin ADCs on A498; conditions: 4-load ADC
Experimental: as §1

[5] = tested on: 786-O Renal Cell Carcinoma; test: In vitro cytotoxicity, 4-load auristatin ADCs on 786-O; conditions: 4-load ADC
Experimental: as §1

| Molecule | IC50 [1] | In vitro IC50 L428 Hodgkin Lymphoma (L428 Hodgkin Lymphoma) | In vitro IC50 A498 Renal Cell Carcinoma [4] | In vitro IC50 786-O Renal Cell Carcinoma [5] | also measured |
| --- | --- | --- | --- | --- | --- |
| CC[C@H](C)[C@@H]([C@@H](CC(=O)N1CCC[C@H]1[C@H](OC)[C@@H](C)C(=O)N[C@H](C)[C@@H](O)c1ccccc1)OC)N(C)C(=O)[C@@H](NC(=O)[C@@H](NC)C(C)C)C(C)C [Compound 3, Monomethyl auristatin E, reference compound] (H-[NMeV]V[Dil][Dolaproine]-X1) | 0.1 nM | – | – | – | IC50 (A2058 Melanoma): 0.1 nM; IC50 (SK-MEL-28 Melanoma): 0.1 nM; IC50 (IGR-37 Melanoma): 0.2 nM; IC50 [2]: 180 nM; IC50 [3]: 1 nM; IC50 (SK-MEL-5 Melanoma): 0.1 nM; IC50 (A375 Melanoma): 0.1 nM |
| CC[C@H](C)[C@@H]([C@@H](CC(=O)N1CCC[C@H]1[C@H](OC)[C@@H](C)C(=O)N[C@@H](Cc1ccccc1)C(=O)O)OC)N(C)C(=O)[C@@H](NC(=O)[C@H](C(C)C)N(C)CCCN(C)C(=O)OC(C)(C)C)C(C)C [Compound 25, (Boc-N-methyl)-propyl-AF] (Boc-[X5]V[Dil][Dolaproine]F-OH) | 15.1 nM | – | – | – | IC50 (A2058 Melanoma; Homo sapiens, A2058): 4 nM; IC50 (SK-MEL-28 Melanoma; Homo sapiens, SK-MEL-28): 17.2 nM; IC50 (IGR-37 Melanoma; Homo sapiens, IGR-37): 16.1 nM; IC50 (SK-MEL-5 Melanoma; Homo sapiens, SK-MEL-5): 6.1 nM; IC50 (A375 Melanoma; Homo sapiens, A-375): 5.9 nM |
| CC[C@H](C)[C@@H]([C@@H](CC(=O)N1CCC[C@H]1[C@H](OC)[C@@H](C)C(=O)N[C@@H](Cc1ccccc1)C(=O)O)OC)N(C)C(=O)[C@@H](NC(=O)[C@H](C(C)C)N(C)CCCCCN(C)C(=O)OC(C)(C)C)C(C)C [Compound 26, (Boc-N-methyl)-pentyl-AF] (Boc-[X2]V[Dil][Dolaproine]F-OH) | 12.5 nM | – | – | – | IC50 (A2058 Melanoma; Homo sapiens, A2058): 0.9 nM; IC50 (SK-MEL-28 Melanoma; Homo sapiens, SK-MEL-28): 9.6 nM; IC50 (IGR-37 Melanoma; Homo sapiens, IGR-37): 6.5 nM; IC50 (SK-MEL-5 Melanoma; Homo sapiens, SK-MEL-5): 0.9 nM; IC50 (A375 Melanoma; Homo sapiens, A-375): 2.1 nM |
| B1 | – | 2 ng/mL | 39 ng/mL | 23 ng/mL | – |
| B2 | – | 1 ng/mL | 9 ng/mL | 4 ng/mL | – |
| B3 | – | 2 ng/mL | 23 ng/mL | 7 ng/mL | – |
| B4 | – | 7 ng/mL | 8 ng/mL | 5 ng/mL | – |
| B5 | – | 2 ng/mL | 36 ng/mL | 12 ng/mL | – |
| B6 | – | >1000 ng/mL | >1000 ng/mL | >1000 ng/mL | – |
